What follows are compounds tested on HCC1599 (assay: drug sensitivity score (DSS), CellTiter-Glo (DSS (AUC-based score)); higher = stronger drug effect (viability inhibition or cytotoxicity); extreme values may be limits of the assay). Details: incubation time: 72 h.
Method in brief: (§1)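 Normalisation on every plate relied on 0.1 % DMSO and a positive kill control. The plates, 384-well format, held compound at 5 concentrations 10-fold apart across a compound-specific 10,000-fold range, and breast cancer cell lines in 20 µl suspension were incubated on them for 72 h before CellTox Green and then CellTiter-Glo readings. The drug sensitivity score derives from the area under the fitted dose-response curve.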
Work on `Cc1ccc(Nc2nccc(N(C)c3ccc4c(C)n(C)nc4c3)n2)cc1S(N)(=O)=O` [Pazopanib] yielded a drug sensitivity score of 0. `CS(=O)(=O)N1CCN(Cc2cc3nc(-c4cccc5[nH]ncc45)nc(N4CCOCC4)c3s2)CC1` [Pictilisib] showed a drug sensitivity score of 0. `O=C(NC[C@H](O)CO)c1ccncc1Nc1ccc(I)cc1F` [Pimasertib] was tested, and the drug sensitivity score was 0. `O=C(CCBr)N1CCN(C(=O)CCBr)CC1` [Pipobroman] was tested, and the drug sensitivity score was 0. For `c1cc(CN2CCCNCCNCCCNCC2)ccc1CN1CCCNCCNCCCNCC1` [Plerixafor], the drug sensitivity score was 0. `Cn1cc(CNCC2CCN(c3ncc(C(=O)NO)cn3)CC2)c2ccccc21` [Quisinostat] showed a drug sensitivity score of 12.5. Compound `CC(C)N(CCCNC(=O)Nc1ccc(C(C)(C)C)cc1)C[C@H]1O[C@@H](n2cc(Br)c3c(N)ncnc32)[C@H](O)[C@@H]1O` [SGC0946] has a drug sensitivity score of 0.

Each compound was assayed on CAL-51 in the same assay as above. Details: incubation time: 72 h.
Method in brief: as §1
`Cc1cccc(-c2nn3c(c2-c2ccnc4ccc(C(N)=O)cc24)CCC3)n1` [Galunisertib] gave a drug sensitivity score of 0.026. In the case of `Nc1cccc2c1CN(C1CCC(=O)NC1=O)C2=O` (stereo not drawn) [Lenalidomide], the drug sensitivity score is reported as 0. In the case of `C[C@]12O[C@H](C[C@]1(O)CO)n1c3ccccc3c3c4c(c5c6ccccc6n2c5c31)CNC4=O` [Lestaurtinib], the drug sensitivity score is reported as 0.729. With `O=C1c2c(O)ccc(O)c2C(=O)c2c(NCCNCCO)ccc(NCCNCCO)c21` [Mitoxantrone] the drug sensitivity score was 2.13. `Nc1ccccc1NC(=O)c1ccc(CNc2nccc(-c3cccnc3)n2)cc1` [Mocetinostat] gave a drug sensitivity score of 8.93. `COc1nc(N)nc2c1ncn2[C@@H]1O[C@H](CO)[C@@H](O)[C@@H]1O` [Nelarabine] showed a drug sensitivity score of 0. Work on `Cc1ccc(Nc2nccc(N(C)c3ccc4c(C)n(C)nc4c3)n2)cc1S(N)(=O)=O` [Pazopanib] yielded a drug sensitivity score of 0. `CS(=O)(=O)N1CCN(Cc2cc3nc(-c4cccc5[nH]ncc45)nc(N4CCOCC4)c3s2)CC1` [Pictilisib] gave a drug sensitivity score of 10.1. `O=C(NC[C@H](O)CO)c1ccncc1Nc1ccc(I)cc1F` [Pimasertib] was tested, and the drug sensitivity score was 5.03. Compound `O=C(CCBr)N1CCN(C(=O)CCBr)CC1` [Pipobroman] has a drug sensitivity score of 1.64. In the case of `c1cc(CN2CCCNCCNCCCNCC2)ccc1CN1CCCNCCNCCCNCC1` [Plerixafor], the drug sensitivity score is reported as 0. Compound `Cn1cc(CNCC2CCN(c3ncc(C(=O)NO)cn3)CC2)c2ccccc21` [Quisinostat] has a drug sensitivity score of 12.1. `CC(C)N(CCCNC(=O)Nc1ccc(C(C)(C)C)cc1)C[C@H]1O[C@@H](n2cc(Br)c3c(N)ncnc32)[C@H](O)[C@@H]1O` [SGC0946] was tested, and the drug sensitivity score was 0.

What follows are compounds tested on MDA-MB-436 in the same assay as above. Details: incubation time: 72 h.
Method in brief: as §1
`Cc1cccc(-c2nn3c(c2-c2ccnc4ccc(C(N)=O)cc24)CCC3)n1` [Galunisertib] was tested, and the drug sensitivity score was 0. Compound `Nc1cccc2c1CN(C1CCC(=O)NC1=O)C2=O` (stereo not drawn) [Lenalidomide] has a drug sensitivity score of 0. Compound `C[C@]12O[C@H](C[C@]1(O)CO)n1c3ccccc3c3c4c(c5c6ccccc6n2c5c31)CNC4=O` [Lestaurtinib] has a drug sensitivity score of 3.31. For `O=C1c2c(O)ccc(O)c2C(=O)c2c(NCCNCCO)ccc(NCCNCCO)c21` [Mitoxantrone], the drug sensitivity score was 5.91. With `Nc1ccccc1NC(=O)c1ccc(CNc2nccc(-c3cccnc3)n2)cc1` [Mocetinostat] the drug sensitivity score was 5.31. For `COc1nc(N)nc2c1ncn2[C@@H]1O[C@H](CO)[C@@H](O)[C@@H]1O` [Nelarabine], the drug sensitivity score was 0.149. For `Cc1ccc(Nc2nccc(N(C)c3ccc4c(C)n(C)nc4c3)n2)cc1S(N)(=O)=O` [Pazopanib], the drug sensitivity score was 0. Compound `CS(=O)(=O)N1CCN(Cc2cc3nc(-c4cccc5[nH]ncc45)nc(N4CCOCC4)c3s2)CC1` [Pictilisib] has a drug sensitivity score of 5.3. `O=C(NC[C@H](O)CO)c1ccncc1Nc1ccc(I)cc1F` [Pimasertib] gave a drug sensitivity score of 0.481. `O=C(CCBr)N1CCN(C(=O)CCBr)CC1` [Pipobroman] was tested, and the drug sensitivity score was 0. `c1cc(CN2CCCNCCNCCCNCC2)ccc1CN1CCCNCCNCCCNCC1` [Plerixafor] was tested, and the drug sensitivity score was 0. Work on `Cn1cc(CNCC2CCN(c3ncc(C(=O)NO)cn3)CC2)c2ccccc21` [Quisinostat] yielded a drug sensitivity score of 9.76. For `CC(C)N(CCCNC(=O)Nc1ccc(C(C)(C)C)cc1)C[C@H]1O[C@@H](n2cc(Br)c3c(N)ncnc32)[C@H](O)[C@@H]1O` [SGC0946], the drug sensitivity score was 0.

Each compound was assayed on HDQ-P1 in the same assay as above. Details: incubation time: 72 h.
Method in brief: as §1
With `Cc1cccc(-c2nn3c(c2-c2ccnc4ccc(C(N)=O)cc24)CCC3)n1` [Galunisertib] the drug sensitivity score was 0. With `Nc1cccc2c1CN(C1CCC(=O)NC1=O)C2=O` (stereo not drawn) [Lenalidomide] the drug sensitivity score was 0. For `C[C@]12O[C@H](C[C@]1(O)CO)n1c3ccccc3c3c4c(c5c6ccccc6n2c5c31)CNC4=O` [Lestaurtinib], the drug sensitivity score was 2.59. `O=C1c2c(O)ccc(O)c2C(=O)c2c(NCCNCCO)ccc(NCCNCCO)c21` [Mitoxantrone] was tested, and the drug sensitivity score was 0.578. `Nc1ccccc1NC(=O)c1ccc(CNc2nccc(-c3cccnc3)n2)cc1` [Mocetinostat] was tested, and the drug sensitivity score was 4.52. `COc1nc(N)nc2c1ncn2[C@@H]1O[C@H](CO)[C@@H](O)[C@@H]1O` [Nelarabine] showed a drug sensitivity score of 0. With `Cc1ccc(Nc2nccc(N(C)c3ccc4c(C)n(C)nc4c3)n2)cc1S(N)(=O)=O` [Pazopanib] the drug sensitivity score was 0. For `CS(=O)(=O)N1CCN(Cc2cc3nc(-c4cccc5[nH]ncc45)nc(N4CCOCC4)c3s2)CC1` [Pictilisib], the drug sensitivity score was 11.9. `O=C(NC[C@H](O)CO)c1ccncc1Nc1ccc(I)cc1F` [Pimasertib] was tested, and the drug sensitivity score was 13. `O=C(CCBr)N1CCN(C(=O)CCBr)CC1` [Pipobroman] showed a drug sensitivity score of 0. `c1cc(CN2CCCNCCNCCCNCC2)ccc1CN1CCCNCCNCCCNCC1` [Plerixafor] showed a drug sensitivity score of 0. Work on `Cn1cc(CNCC2CCN(c3ncc(C(=O)NO)cn3)CC2)c2ccccc21` [Quisinostat] yielded a drug sensitivity score of 10.3. `CC(C)N(CCCNC(=O)Nc1ccc(C(C)(C)C)cc1)C[C@H]1O[C@@H](n2cc(Br)c3c(N)ncnc32)[C@H](O)[C@@H]1O` [SGC0946] showed a drug sensitivity score of 0.

These compounds were tested on Hs578T in the same assay as above. Details: incubation time: 72 h.
Method in brief: as §1
Compound `Cc1cccc(-c2nn3c(c2-c2ccnc4ccc(C(N)=O)cc24)CCC3)n1` [Galunisertib] has a drug sensitivity score of 0. With `Nc1cccc2c1CN(C1CCC(=O)NC1=O)C2=O` (stereo not drawn) [Lenalidomide] the drug sensitivity score was 0. With `C[C@]12O[C@H](C[C@]1(O)CO)n1c3ccccc3c3c4c(c5c6ccccc6n2c5c31)CNC4=O` [Lestaurtinib] the drug sensitivity score was 3.6. Compound `O=C1c2c(O)ccc(O)c2C(=O)c2c(NCCNCCO)ccc(NCCNCCO)c21` [Mitoxantrone] has a drug sensitivity score of 0. In the case of `Nc1ccccc1NC(=O)c1ccc(CNc2nccc(-c3cccnc3)n2)cc1` [Mocetinostat], the drug sensitivity score is reported as 5.95. `COc1nc(N)nc2c1ncn2[C@@H]1O[C@H](CO)[C@@H](O)[C@@H]1O` [Nelarabine] was tested, and the drug sensitivity score was 0. Work on `Cc1ccc(Nc2nccc(N(C)c3ccc4c(C)n(C)nc4c3)n2)cc1S(N)(=O)=O` [Pazopanib] yielded a drug sensitivity score of 0.162. In the case of `CS(=O)(=O)N1CCN(Cc2cc3nc(-c4cccc5[nH]ncc45)nc(N4CCOCC4)c3s2)CC1` [Pictilisib], the drug sensitivity score is reported as 7.69. `O=C(NC[C@H](O)CO)c1ccncc1Nc1ccc(I)cc1F` [Pimasertib] gave a drug sensitivity score of 2.79. In the case of `O=C(CCBr)N1CCN(C(=O)CCBr)CC1` [Pipobroman], the drug sensitivity score is reported as 0. Compound `c1cc(CN2CCCNCCNCCCNCC2)ccc1CN1CCCNCCNCCCNCC1` [Plerixafor] has a drug sensitivity score of 0. `Cn1cc(CNCC2CCN(c3ncc(C(=O)NO)cn3)CC2)c2ccccc21` [Quisinostat] showed a drug sensitivity score of 13.7. `CC(C)N(CCCNC(=O)Nc1ccc(C(C)(C)C)cc1)C[C@H]1O[C@@H](n2cc(Br)c3c(N)ncnc32)[C@H](O)[C@@H]1O` [SGC0946] showed a drug sensitivity score of 0.

Each compound was assayed on HCC1143 (assay: drug sensitivity score (DSS), CellTox Green (DSS (AUC-based score)); higher = stronger drug effect (viability inhibition or cytotoxicity); extreme values may be limits of the assay). Details: incubation time: 72 h.
Method in brief: as §1
For `Cc1cccc(-c2nn3c(c2-c2ccnc4ccc(C(N)=O)cc24)CCC3)n1` [Galunisertib], the drug sensitivity score was 0. `Nc1cccc2c1CN(C1CCC(=O)NC1=O)C2=O` (stereo not drawn) [Lenalidomide] was tested, and the drug sensitivity score was 0. `C[C@]12O[C@H](C[C@]1(O)CO)n1c3ccccc3c3c4c(c5c6ccccc6n2c5c31)CNC4=O` [Lestaurtinib] gave a drug sensitivity score of 0. `O=C1c2c(O)ccc(O)c2C(=O)c2c(NCCNCCO)ccc(NCCNCCO)c21` [Mitoxantrone] was tested, and the drug sensitivity score was 0. Work on `Nc1ccccc1NC(=O)c1ccc(CNc2nccc(-c3cccnc3)n2)cc1` [Mocetinostat] yielded a drug sensitivity score of 0.874. For `COc1nc(N)nc2c1ncn2[C@@H]1O[C@H](CO)[C@@H](O)[C@@H]1O` [Nelarabine], the drug sensitivity score was 0. In the case of `Cc1ccc(Nc2nccc(N(C)c3ccc4c(C)n(C)nc4c3)n2)cc1S(N)(=O)=O` [Pazopanib], the drug sensitivity score is reported as 1.06. `CS(=O)(=O)N1CCN(Cc2cc3nc(-c4cccc5[nH]ncc45)nc(N4CCOCC4)c3s2)CC1` [Pictilisib] gave a drug sensitivity score of 0. `O=C(NC[C@H](O)CO)c1ccncc1Nc1ccc(I)cc1F` [Pimasertib] was tested, and the drug sensitivity score was 0. `O=C(CCBr)N1CCN(C(=O)CCBr)CC1` [Pipobroman] was tested, and the drug sensitivity score was 1.77. In the case of `c1cc(CN2CCCNCCNCCCNCC2)ccc1CN1CCCNCCNCCCNCC1` [Plerixafor], the drug sensitivity score is reported as 0. In the case of `Cn1cc(CNCC2CCN(c3ncc(C(=O)NO)cn3)CC2)c2ccccc21` [Quisinostat], the drug sensitivity score is reported as 2.18. `CC(C)N(CCCNC(=O)Nc1ccc(C(C)(C)C)cc1)C[C@H]1O[C@@H](n2cc(Br)c3c(N)ncnc32)[C@H](O)[C@@H]1O` [SGC0946] gave a drug sensitivity score of 0.

Each compound was assayed on BT-474 in the same assay as above. Details: incubation time: 72 h.
Method in brief: as §1
Compound `Cc1cccc(-c2nn3c(c2-c2ccnc4ccc(C(N)=O)cc24)CCC3)n1` [Galunisertib] has a drug sensitivity score of 0. `Nc1cccc2c1CN(C1CCC(=O)NC1=O)C2=O` (stereo not drawn) [Lenalidomide] was tested, and the drug sensitivity score was 0. `C[C@]12O[C@H](C[C@]1(O)CO)n1c3ccccc3c3c4c(c5c6ccccc6n2c5c31)CNC4=O` [Lestaurtinib] gave a drug sensitivity score of 0.706. In the case of `O=C1c2c(O)ccc(O)c2C(=O)c2c(NCCNCCO)ccc(NCCNCCO)c21` [Mitoxantrone], the drug sensitivity score is reported as 0. For `Nc1ccccc1NC(=O)c1ccc(CNc2nccc(-c3cccnc3)n2)cc1` [Mocetinostat], the drug sensitivity score was 2.44. In the case of `COc1nc(N)nc2c1ncn2[C@@H]1O[C@H](CO)[C@@H](O)[C@@H]1O` [Nelarabine], the drug sensitivity score is reported as 0. For `Cc1ccc(Nc2nccc(N(C)c3ccc4c(C)n(C)nc4c3)n2)cc1S(N)(=O)=O` [Pazopanib], the drug sensitivity score was 0. With `CS(=O)(=O)N1CCN(Cc2cc3nc(-c4cccc5[nH]ncc45)nc(N4CCOCC4)c3s2)CC1` [Pictilisib] the drug sensitivity score was 1.54. `O=C(NC[C@H](O)CO)c1ccncc1Nc1ccc(I)cc1F` [Pimasertib] showed a drug sensitivity score of 2.1. In the case of `O=C(CCBr)N1CCN(C(=O)CCBr)CC1` [Pipobroman], the drug sensitivity score is reported as 0. Compound `c1cc(CN2CCCNCCNCCCNCC2)ccc1CN1CCCNCCNCCCNCC1` [Plerixafor] has a drug sensitivity score of 0. Work on `Cn1cc(CNCC2CCN(c3ncc(C(=O)NO)cn3)CC2)c2ccccc21` [Quisinostat] yielded a drug sensitivity score of 11. In the case of `CC(C)N(CCCNC(=O)Nc1ccc(C(C)(C)C)cc1)C[C@H]1O[C@@H](n2cc(Br)c3c(N)ncnc32)[C@H](O)[C@@H]1O` [SGC0946], the drug sensitivity score is reported as 0.

What follows are compounds tested on CAL-148 in the same assay as above. Details: incubation time: 72 h.
Method in brief: as §1
For `Cc1cccc(-c2nn3c(c2-c2ccnc4ccc(C(N)=O)cc24)CCC3)n1` [Galunisertib], the drug sensitivity score was 0. Compound `Nc1cccc2c1CN(C1CCC(=O)NC1=O)C2=O` (stereo not drawn) [Lenalidomide] has a drug sensitivity score of 1.27. In the case of `C[C@]12O[C@H](C[C@]1(O)CO)n1c3ccccc3c3c4c(c5c6ccccc6n2c5c31)CNC4=O` [Lestaurtinib], the drug sensitivity score is reported as 0.

Reference: the supplement of paper PMC4862054
